Assay results: EP3884948A1, “CATHEPSIN INHIBITORS AND USES THEREOF” (Ecole Polytechnique Fédérale de Lausanne (EPFL), priority 2020, dated 2021)
Each block holds one compound with its values, some of them ahead of it.

Experiments:
[1] = system: A20-HA lymphoma cells co-incubated with CD8+ T-cells isolated from CL4-HA transgenic animals; experiment: Co-culture assay of A20-HA lymphoma cells with CD8+ T-cells; type: cell-based, mouse; conditions: A20-HA cells pre-treated with 30uM inhibitor; for over-activation of CD8+ T-cells: 72h co-incubation
Method: Proteins were extracted using a buffer containing 20 mM Tris-HCl (pH 7.5) 150 mM NaCl, 1 mM Na2EDTA 1 mM EGTA 1% NP-40 1% sodium deoxycholate 2.5 mM sodium pyrophosphate 1 mM β-glycerophosphate 1 mM Na3VO4 1 µg/ml leupeptin) supplemented with protease (Sigma Aldrich, cat #11836153001) and phosphatases (Roche, cat #04906837001) inhibitors and quantified with the Bradford reagent (Bio-Rad, cat #5000006). 20-30 µg of proteins were resolved on SDS-PAGE and transferred at 20V for 20-30 minutes to Immobilon-P-membranes (Millipore). After blocking in 5% milk (Applichem, cat #A0830) in PBS-0.1%Tween (Fisher scientific, cat #BP337), membranes were incubated overnight in 5% milk in PBS-Tween with the following primary antibodies: goat anti-human Cathepsin S (RD, cat #AF1183, 1:2000), Cathepsin B (D1C7Y) XP® Rabbit (Cell signaling mAb #31718), rabbit anti-mouse Cathepsin S (Sino Biological, cat #50769-R054, 1:1000), mouse anti-human CD74 (PIN.1, StressMarq, cat #SMC-116, diluted 1:1000), rat-anti-mouse CD74 (clone ln-1, BD biosciences, cat #555317, 1:1000), rabbit anti-his-Tag (Cell Signaling, cat #D3I10, dilute 1:1000), mouse anti-human alpha-Tubulin (clone B-5-1-2, Sigma Aldrich, cat#T6072, diluted 1:10000), anti-beta actin (clone 8H10D10, ThermoFisher Scientific, cat# MA5-15452, 1:1000).
At the end of the B-cell/T cell co-culture, […] and analyzed for the proliferation of T cells stained with an Pe-Cy7 anti-mouse CD8a antibody (Clone 53-6.7, BD Biosciences, San Jose, CA, USA, cat #552877) or PercP efluor 710 rat anti-CD4 antibody (bd bioscience, cat#564379) by quantifying CellTrace violet proliferation peaks using flow cytometry. In parallel, B cell concentration was measured using cell-counting flow-cytometer (Guava easyCyte). A20-HA lymphoma cells wild-type, Ctss knock-out, B2m knock-out, and Pdl1 knock-out expressing HA as antigen were pre-treated with 30uM E64 (Apexbio Technology LLC (cat #A2576), 30uM Z-FL-COCHO (Anawa trading SA, cat #A13502-5), 30uM LY300328 (Lucerna Chem AG, cat # MCE-HY-15533) or-directly co-incubated for 72h with CellTrace violet stained CD8+ T-cells isolated from CL4-HA transgenic animals. At the end of the B-cell/T cell co-culture, cells were collected, stained with PE-Cy7 anti-mouse CD8a antibody (Clone 53-6.7, BD Biosciences, San Jose, CA, USA cat #552877) and analyzed for the proliferation of T cells stained by quantifying CellTrace violet proliferation peaks using flow cytometry. In parallel, B cell concentration was measured using cell-counting flow-cytometer (Guava easyCyte).

cathepsin S (CTSS) = target: T1, cathepsin S (CTSS) (Homo sapiens, UniProt P25774); experiment: FRET assay for cathepsin S (inhibitor screen and substrate cleavage); type: biochemical; conditions: for inhibition of cathepsin S activity (MCA fluorescent emission): CTSS, peptide of SEQ ID NO: 1 as substrate, Fig. 3; for cleavage by CTSS as substrate: FRET, CTSS-His-WT, SEQ ID NO: 1 compared with SEQ ID NO: 4
T1 construct: made in house; host or cells: HEK293
Method: CTSS-His WT and Y132D were diluted to 10 µg/mL in Assay buffer (50 mM NaOAc, 5 mM DTT, 250 mM NaCl), at pH 4.5 and incubated at 37°C for 90 minutes to allow auto-activation. The proteins were then diluted to 0.5 ng/µl in Assay buffer and plated in 96-well plates (50 µl/well). The peptides of SEQ ID NO: 1, SEQ ID NO: 2, SEQ ID NO: 3, SEQ ID NO: 4 and SEQ ID NO: 5 were synthesized and diluted to 20 µM in a buffer (50 mM NaOAc, 5 mM DTT, 250 mM NaCl) then added to the activated CTSS (50 µl/well). 50 µM E64 (Selleckchem, cat #S7379) was added to CTSS prior to the substrate as positive control. A commercially available CTSS purified protein (R&D systems, cat #1183-CY-010) was in addition used as control. MCA emission was measured with SpectraMax iD3 (Molecular Devices) in kinetic mode for 20 minutes (excitation: 330 nm, emission: 390 nm).
The FRET assay was miniaturized to performed the screen in […] and each molecule was tested in duplicates. 10 µg/ml of CTSS was incubated in the activation buffer for 105 minutes to allow a complete activation of the enzyme. Then, the enzyme was diluted at 0.5 µg/ml and dispensed in […] pre-loaded with the small molecule candidates using an automatic dispenser (Biotek Dispenser multiflo). The plates were incubated for 10 minutes at room temperature and then 20 µM of substrate was added in each well and acquired the fluorescence signal (excitation: 330 nm, emission: 390 nm) after 90 minutes. For each plate, were included untreated wells as negative control and E64 was used (150 µM) as positive control. To assess the quality of the screen, a Z'-score for each plate was calculated and all plates had Z' score > 0.6. To identify possible hits, the average value and standard deviation of the positive and negative control were calculated. The upper and lower limit values for each plate were calculated considering plus/minus three times the standard deviation to the average and only compounds that in both independent duplicate scored below the positive control threshold were retained.

cathepsin B (CTSB) = cathepsin B (CTSB) (Homo sapiens, UniProt P07858); experiment: FRET specificity assay for cathepsin B; type: biochemical; conditions: for inhibition of Cathepsin B activity (MCA fluorescent emission): CTSB, peptide of SEQ ID NO: 5 as substrate, Fig. 4
Method: (§1) First, specific conditions to activate the enzymes were used as follows: CTSB was diluted in active buffer (MES 25 mM, DTT 5 mM, pH 5) at 10 µg/ml, incubated at 37°C for 2h and then diluted to 1 µg/ml in assay buffer (MES 25 mM, pH 5) for the FRET assay. CTSH was diluted in a specific active buffer (MES 50 mM, CaCl2 10 mM, NaCl 150 mM, pH 6.5) 200 µg/ml. In addition, as co-stimulatory activator thermolysin diluted at 100 µg/ml in active buffer was used mixed with equal volume of the diluted CTSH. The solution was incubated for 1h room temperature and then we added 2 mM Phosporamidon diluted in assay buffer (MES 50 mM, pH 6,5) and incubate the mix for 10 minutes at room temperature. Lastly, an equal volume of assay buffer containing 20 mM DTT was added and the mixture incubated 5 minutes at room temperature. For the FRET assay, diluted both CTSH, and CTSB at 1 µg/ml were used in their specific assay buffer and incubated with a specific substrate. As substrate, the following peptides were used: peptide of SEQ ID NO: 5 (KPPKPVSD) in CTSB FRET assays and SEQ ID NO: 1 (KLRMKLPKP) in CTSH FRET assays and tested increasing doses of candidate inhibitors (20 µM, 10 µM, 1 µM, 0.1 µM). Fluorescence emission was measured with SpectraMax iD3 (Molecular Devices) in kinetic mode over three hours (excitation: 330 nm, emission: 390 nm).

cathepsin H (CTSH) = cathepsin H (CTSH) (Homo sapiens, UniProt P09668); experiment: FRET specificity assay for cathepsin H; type: biochemical; conditions: peptide of SEQ ID NO: 2 as substrate, Fig. 5
Method: as §1, with “As substrate, the following peptides were used: peptide of SEQ ID NO: 5 (KPPKPVSD) in CTSB FRET assays and SEQ ID NO: 1 (KLRMKLPKP) in CTSH FRET assays and tested increasing doses of candidate inhibitors (20 µM, 10 µM, 1 µM, 0.1 µM).” left out

[2] = system: human lymphoma cancer cell lines (Karpas-422 and DoHH2); experiment: Cell viability assay in lymphoma cell lines; type: cell-based; conditions: for toxicity / cell survival: Karpas-422 and DoHH2, 48h or 72h, increasing doses up to 50 µM
Method: Two human lymphoma cell lines DoHH2 and Karpas-422 and one murine lymphoma cell line A20 were treated with increasing concentration of compounds (1), (5) and (9). 24 hours before treatment cells were diluted at 2^∗10^5 cells/ml. Cell number was measured at 48h and 72h after treatment using automatic cell counting of Millipore Guava. The values were normalized to cells treated with the same dose of vehicle (DMSO).
Next, the toxicity of these inhibitors on two human lymphoma cancer cell lines (Karpas-422 and DoHH2). The cells were treated with the small molecules for 48h or 72h at increasing doses (50 µM, 10 µM, µM, 0.1 µM). […] Conversely, compound (9) progressively decreases cell proliferation of up to 50% after 72 hours of exposure to the 0. 1 µM of the compound or less than 30% in cells treated with 10 or 50 µM.

cathepsin H (CTSH), sequence (P09668 116-335 limits assumed, other chains not shown): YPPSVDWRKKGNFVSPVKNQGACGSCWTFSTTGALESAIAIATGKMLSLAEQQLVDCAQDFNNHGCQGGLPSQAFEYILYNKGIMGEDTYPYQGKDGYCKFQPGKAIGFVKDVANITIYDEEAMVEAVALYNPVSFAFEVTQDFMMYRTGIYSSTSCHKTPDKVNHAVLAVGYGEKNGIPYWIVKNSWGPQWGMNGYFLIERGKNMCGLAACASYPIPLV
T1 sequence (P25774 115-331): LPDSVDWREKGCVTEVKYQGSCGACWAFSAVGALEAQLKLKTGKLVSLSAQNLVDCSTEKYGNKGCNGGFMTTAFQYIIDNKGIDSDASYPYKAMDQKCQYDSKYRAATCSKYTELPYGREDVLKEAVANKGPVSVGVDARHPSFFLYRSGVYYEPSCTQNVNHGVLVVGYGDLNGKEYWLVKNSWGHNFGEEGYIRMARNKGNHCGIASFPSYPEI

inhibition of cathepsin S activity (MCA fluorescent emission) (cathepsin S (CTSS)): able to inhibit cathepsin S activity
inhibition of Cathepsin B activity (MCA fluorescent emission) (cathepsin B (CTSB)): not Cathepsin B
inhibition of Cathepsin H activity (MCA fluorescent emission) (cathepsin H (CTSH)): not Cathepsin H
Compound: O=c1ccc(-c2ccco2)nn1CCNS(=O)(=O)c1ccccc1F [compound (1), 2-fluoro-N-[2-[3-(2-furanyl)-6-oxo-1(6H)-pyridazinyl]ethyl]-benzenesulfonamide]
toxicity / cell survival [2]: well tolerated

inhibition of cathepsin S activity (MCA fluorescent emission) (cathepsin S (CTSS)): able to inhibit cathepsin S activity
inhibition of Cathepsin B activity (MCA fluorescent emission) (cathepsin B (CTSB)): not Cathepsin B
inhibition of Cathepsin H activity (MCA fluorescent emission) (cathepsin H (CTSH)): not Cathepsin H
Compound: Cc1noc(C)c1CC(=O)NCCn1nc(-c2ccco2)ccc1=O [compound (5), N-[2-[3-(2-furanyl)-6-oxo-1(6H)-pyridazinyl]ethyl]-3,5-dimethyl-4-isoxazoleacetamide]
toxicity / cell survival [2]: well tolerated

cleavage by CTSS as substrate (cathepsin S (CTSS)): cleaved more efficiently
Compound: KLRMKLPKP [SEQ ID NO: 1]

substrate for Cathepsin B (cathepsin B (CTSB)): good substrate for Cathepsin B
Compound: KPPKPVSK [SEQ ID NO: 4]

Continued, compound first:

Compound: CC(C)C[C@H](NC(=O)[C@H]1O[C@@H]1C(=O)O)C(=O)NCCCCNC(=N)N [E64]
accumulation of the small fragment of CD74, p10 [1]: observed
over-activation of CD8+ T-cells [1]: no over-activation

Compound: Cc1nc(N2CCCC(C(=O)NCc3ccco3)C2)c2c(C)c(C)oc2n1 (stereo not shown) [compound (9), N-(2-furanylmethyl)-1-(2,5,6-trimethylfuro[2,3-d]pyrimidin-4-yl)-3-piperidinecarboxamide]
inhibition at 0.1 µM ([2]; Homo sapiens, after 72 hours of exposure to 0.1 µM, read-out: decrease of cell proliferation): ≤ 50%

Compound: Cc1oc2ncnc(N3CCCC(C(=O)NCCc4ccco4)C3)c2c1C (stereo not shown) [compound (11), 1-(5,6-dimethylfuro[2,3-d]pyrimidin-4-yl)-N-[2-(2-furanyl)ethyl]-3-piperidinecarboxamide]
inhibition of cathepsin S activity (MCA fluorescent emission) (cathepsin S (CTSS)): able to inhibit cathepsin S activity
inhibition of Cathepsin B activity (MCA fluorescent emission) (cathepsin B (CTSB)): not Cathepsin B
inhibition of Cathepsin H activity (MCA fluorescent emission) (cathepsin H (CTSH)): not Cathepsin H

Compound: KLRMKLPKD [SEQ ID NO: 2]
cleavage by CTSS as substrate (cathepsin S (CTSS)): improved cathepsin S substrate

Compound: Z-FL-COCHO
accumulation of the small fragment of CD74, p10 [1]: observed
over-activation of CD8+ T-cells [1]: no over-activation
